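In this assay, cells in 96-well plates receive the compound at five concentrations for 48 hours. Endpoints are linearly interpolated between the surrounding concentrations. TGI denotes the concentration required for complete inhibition of growth.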
How the values were obtained:
Assay in all cases: NCI tumour cell line growth inhibition, 48 h
786-0 renal = tested on: 786-0 renal
A549 NSCLC = tested on: A549 NSCLC
ACHN renal = tested on: ACHN renal
BT-549 breast = tested on: BT-549 breast
CAKI-1 renal = tested on: CAKI-1 renal
CCRF-CEM leukemia = tested on: CCRF-CEM leukemia
COLO 205 colon = tested on: COLO 205 colon
DU-145 prostate = tested on: DU-145 prostate
EKVX NSCLC = tested on: EKVX NSCLC
HCC-2998 colon = tested on: HCC-2998 colon
HCT-116 colon = tested on: HCT-116 colon
HCT-15 colon = tested on: HCT-15 colon
HL-60(TB) leukemia = tested on: HL-60(TB) leukemia
HOP-62 NSCLC = tested on: HOP-62 NSCLC
HOP-92 NSCLC = tested on: HOP-92 NSCLC
HS 578T breast = tested on: HS 578T breast
HT29 colon = tested on: HT29 colon
IGROV1 ovarian = tested on: IGROV1 ovarian
K-562 leukemia = tested on: K-562 leukemia
KM12 colon = tested on: KM12 colon
LOX IMVI melanoma = tested on: LOX IMVI melanoma
M14 melanoma = tested on: M14 melanoma
MALME-3M melanoma = tested on: MALME-3M melanoma
MCF7 breast = tested on: MCF7 breast
MDA-MB-231 breast = tested on: MDA-MB-231 breast
MDA-MB-435 = tested on: MDA-MB-435
MDA-N = tested on: MDA-N
MOLT-4 leukemia = tested on: MOLT-4 leukemia
NCI-H226 lung = tested on: NCI-H226 lung
NCI-H23 lung = tested on: NCI-H23 lung
NCI-H460 lung = tested on: NCI-H460 lung
NCI-H522 lung = tested on: NCI-H522 lung
NCI/ADR-RES ovarian = tested on: NCI/ADR-RES ovarian
OVCAR-3 ovarian = tested on: OVCAR-3 ovarian
OVCAR-4 ovarian = tested on: OVCAR-4 ovarian
OVCAR-5 ovarian = tested on: OVCAR-5 ovarian
OVCAR-8 ovarian = tested on: OVCAR-8 ovarian
PC-3 prostate = tested on: PC-3 prostate
RPMI-8226 leukemia = tested on: RPMI-8226 leukemia
RXF 393 renal = tested on: RXF 393 renal
SF-268 CNS = tested on: SF-268 CNS
SF-295 CNS = tested on: SF-295 CNS
SF-539 CNS = tested on: SF-539 CNS
SK-MEL-2 melanoma = tested on: SK-MEL-2 melanoma
SK-MEL-28 melanoma = tested on: SK-MEL-28 melanoma
SK-MEL-5 melanoma = tested on: SK-MEL-5 melanoma
SK-OV-3 ovarian = tested on: SK-OV-3 ovarian
SN12C renal = tested on: SN12C renal
SNB-19 CNS = tested on: SNB-19 CNS
SNB-75 CNS = tested on: SNB-75 CNS
SR leukemia = tested on: SR leukemia
SW-620 colon = tested on: SW-620 colon
T-47D breast = tested on: T-47D breast
TK-10 renal = tested on: TK-10 renal
U251 CNS = tested on: U251 CNS
UACC-257 melanoma = tested on: UACC-257 melanoma
UACC-62 melanoma = tested on: UACC-62 melanoma
UO-31 renal = tested on: UO-31 renal

For `COC(=O)c1ccc(C)cc1C1CN=NC12Cc1cccc(C)c1C2=O` (stereo not given), the TGI (786-0 renal) was over 100 µM, the TGI (A549 NSCLC) was over 100 µM and the TGI (ACHN renal) was over 100 µM. The TGI (BT-549 breast) was 91.4 µM, the TGI (CAKI-1 renal) was over 100 µM and the TGI (CCRF-CEM leukemia) was 92.8 µM. The TGI (COLO 205 colon) was over 100 µM, the TGI (DU-145 prostate) was over 100 µM and the TGI (EKVX NSCLC) was over 100 µM. It also gave a TGI (HCC-2998 colon) of over 100 µM, a TGI (HCT-116 colon) of over 100 µM and a TGI (HCT-15 colon) of over 100 µM. It also gave a TGI (HL-60(TB) leukemia) of 49.8 µM, a TGI (HOP-62 NSCLC) of over 100 µM and a TGI (HOP-92 NSCLC) of over 100 µM. It also gave a TGI (HS 578T breast) of over 100 µM, a TGI (HT29 colon) of over 100 µM and a TGI (IGROV1 ovarian) of over 100 µM. It also gave a TGI (K-562 leukemia) of 68.4 µM, a TGI (KM12 colon) of 72.5 µM and a TGI (LOX IMVI melanoma) of 63.9 µM. It also gave a TGI (M14 melanoma) of 42.1 µM, a TGI (MALME-3M melanoma) of 96.6 µM and a TGI (MCF7 breast) of over 100 µM. The TGI (MDA-MB-231 breast) was over 100 µM, the TGI (MDA-MB-435) was 37.9 µM and the TGI (MDA-N) was 70.9 µM. It also gave a TGI (MOLT-4 leukemia) of 43.1 µM, a TGI (NCI-H226 lung) of 73.6 µM and a TGI (NCI-H23 lung) of over 100 µM. For the same molecule, the TGI (NCI-H460 lung) was over 100 µM, the TGI (NCI-H522 lung) was 78.1 µM and the TGI (NCI/ADR-RES ovarian) was 67.1 µM. It also gave a TGI (OVCAR-3 ovarian) of over 100 µM, a TGI (OVCAR-4 ovarian) of over 100 µM and a TGI (OVCAR-5 ovarian) of over 100 µM. It also gave a TGI (OVCAR-8 ovarian) of 47.1 µM, a TGI (PC-3 prostate) of 70.6 µM and a TGI (RPMI-8226 leukemia) of 49.8 µM. It also gave a TGI (RXF 393 renal) of over 100 µM, a TGI (SF-268 CNS) of over 100 µM and a TGI (SF-295 CNS) of over 100 µM. It also gave a TGI (SF-539 CNS) of over 100 µM, a TGI (SK-MEL-2 melanoma) of 63.8 µM and a TGI (SK-MEL-28 melanoma) of 91.8 µM. The TGI (SK-MEL-5 melanoma) was 47.6 µM, the TGI (SK-OV-3 ovarian) was over 100 µM and the TGI (SN12C renal) was over 100 µM. For the same molecule, the TGI (SNB-19 CNS) was over 100 µM, the TGI (SNB-75 CNS) was over 100 µM and the TGI (SR leukemia) was over 100 µM. For the same molecule, the TGI (SW-620 colon) was over 100 µM, the TGI (T-47D breast) was 85.8 µM and the TGI (TK-10 renal) was over 100 µM. The TGI (U251 CNS) was over 100 µM, the TGI (UACC-257 melanoma) was 66 µM and the TGI (UACC-62 melanoma) was 53.1 µM. For the same molecule, the TGI (UO-31 renal) was 78.3 µM.
Work on `CC(=O)c1c(-c2ccco2)c(C#N)c(=S)n(C2OC(CO)C(O)C(O)C2O)c1C` (stereo not given) yielded a TGI (A549 NSCLC) of over 100 µM, a TGI (ACHN renal) of over 100 µM and a TGI (BT-549 breast) of over 100 µM. It also gave a TGI (CAKI-1 renal) of over 100 µM, a TGI (CCRF-CEM leukemia) of over 100 µM and a TGI (COLO 205 colon) of over 100 µM. The TGI (DU-145 prostate) was over 100 µM, the TGI (EKVX NSCLC) was over 100 µM and the TGI (HCT-116 colon) was over 100 µM. For the same molecule, the TGI (HCT-15 colon) was over 100 µM, the TGI (HL-60(TB) leukemia) was over 100 µM and the TGI (HOP-62 NSCLC) was over 100 µM. For the same molecule, the TGI (HS 578T breast) was over 100 µM, the TGI (HT29 colon) was over 100 µM and the TGI (IGROV1 ovarian) was over 100 µM. For the same molecule, the TGI (K-562 leukemia) was over 100 µM, the TGI (KM12 colon) was over 100 µM and the TGI (LOX IMVI melanoma) was over 100 µM. It also gave a TGI (M14 melanoma) of over 100 µM, a TGI (MALME-3M melanoma) of over 100 µM and a TGI (MCF7 breast) of over 100 µM. For the same molecule, the TGI (MDA-MB-231 breast) was over 100 µM, the TGI (MDA-MB-435) was over 100 µM and the TGI (MDA-N) was over 100 µM. It also gave a TGI (MOLT-4 leukemia) of over 100 µM, a TGI (NCI-H23 lung) of over 100 µM and a TGI (NCI-H460 lung) of over 100 µM. The TGI (NCI/ADR-RES ovarian) was over 100 µM, the TGI (OVCAR-3 ovarian) was over 100 µM and the TGI (OVCAR-4 ovarian) was over 100 µM. For the same molecule, the TGI (OVCAR-5 ovarian) was over 100 µM, the TGI (OVCAR-8 ovarian) was over 100 µM and the TGI (PC-3 prostate) was over 100 µM. It also gave a TGI (RPMI-8226 leukemia) of over 100 µM, a TGI (RXF 393 renal) of over 100 µM and a TGI (SF-268 CNS) of over 100 µM. It also gave a TGI (SF-295 CNS) of over 100 µM, a TGI (SF-539 CNS) of over 100 µM and a TGI (SK-MEL-28 melanoma) of over 100 µM. It also gave a TGI (SK-MEL-5 melanoma) of over 100 µM, a TGI (SK-OV-3 ovarian) of over 100 µM and a TGI (SN12C renal) of over 100 µM. The TGI (SNB-19 CNS) was over 100 µM, the TGI (SNB-75 CNS) was over 100 µM and the TGI (SR leukemia) was over 100 µM. It also gave a TGI (SW-620 colon) of over 100 µM, a TGI (T-47D breast) of over 100 µM and a TGI (TK-10 renal) of over 100 µM. The TGI (U251 CNS) was over 100 µM, the TGI (UACC-257 melanoma) was over 100 µM and the TGI (UACC-62 melanoma) was over 100 µM. It also gave a TGI (UO-31 renal) of over 100 µM.

Reference: PubChem BioAssay (NCI)
